Tests used:
[1] = system: RKO (RKOp27) human colon adenocarcinoma cells; assay: Alamar Blue cell viability assay, anti-proliferative/cytotoxic activity, RKO p27 uninduced; format: cell-based; conditions: RKOp27, 72 h, proliferating cells, absence of the inducer Ponasterone A, 72 hours incubation
Procedure: The anti-proliferative/cytotoxic activity of the compounds described herein, can be tested on subdlones of RKO (RKOp27) human colon adenocarcinoma cells (Schmidt et al., Oncogene 19, 2423-2429; 2000) using the Alamar Blue cell viability assay (described in O'Brien et al. Eur J Biochem 267, 5421-5426, 2000). The compounds are dissolved as 20 mM solutions in dimethylsulfoxide (DMSO) and subsequently diluted in semi-logarithmic steps. DMSO dilutions are further diluted 1:100 into Dulbecco's modified Eagle's medium (DMEM) containing 10% fetal calf serum to a final concentration twice as much as the final concentration in the test. RKO subclones are seeded into 96 well flat bottom plates at a density of 4000 cells per well in a volume of 50 µl per well. 24 hours after seeding the 50 μl each of the compound dilutions in DMEM medium are added into each well of the 96 Well plate. Each compound dilution is tested as quadruplicates. Wells containing untreated control cells are filled with 50 μl DMEM medium containing 1% DMSO. The cells are then incubated with the substances for 72 hours at 37° C. in a humidified atmosphere containing 5% carbon dioxide. To determine the viability of the cells, 10 μl of an Alamar Blue solution (Biosource) are added and the fluorescence is measured at an extinction of 544 nm and an emission of 590 nm. For the calculation of the cell viability the emission value from untreated cells is set as 100% viability and the emission rates of treated cells are set in relation to the values of untreated cells. Viabilities are expressed as % values.
The corresponding IC50 values of the compounds for anti-proliferative/cytotoxic activity are determined from the concentration-effect curves.
Representative IC50 values for anti-proliferation/cytotoxicity determined for the compounds mentioned and numbered as Examples in the examples above follow from the following table A (1st column), in which the numbers of the compound correspond to the numbers of the examples. Any or all of the compounds according to the present invention which are listed in the Table A, as well as their salts, are to be mentioned as a particular interesting subject of the present invention.

[2] = system: RKO colon adenocarcinoma cells (RKOp27) arrested by expression of ectopic p27Kip1; assay: Alamar Blue cell viability assay, cell cycle specific mode of action, RKO p27 induced (arrested by Ponasterone A-induced p27Kip1); format: cell-based; conditions: Homo sapiens, RKOp27, 72 h, cells arrested by p27Kip1 induced with 10 μM Ponasterone A, 72 hours incubation
Procedure: To determine the cell cycle specific mode of action, subdlones of RKO colon adenocarcinoma cells (RKOp27 or RKOp21 as described by Schmidt et al. in Oncogene 19, 2423-2429; 2000) are seeded into 96 well flat bottom plates at a density of 16000 cells per well in a volume of 50 μl per well in DMEM growth medium with 10% FCS containing 10 μM Ponasterone A. 24 hours after seeding the 50 μl each of the compound dilutions in DMEM medium are added into each well of the 96 Well plate. Each compound dilution is tested as quadruplicates. Wells containing untreated control cells are filled with 50 μl DMEM medium containing 1% DMSO. The cells are then incubated with the substances for 72 hours at 37° C. in a humidified atmosphere containing 5% carbon dioxide. To determine the viability of the cells, 10 μl of an Alamar Blue solution (Biosource) are added and the fluorescence was measured at an extinction of 544 nm and an emission of 590 nm. For the calculation of the cell viability the emission value from untreated cells is set as 100% viability and the emission rates of treated cells are set in relation to the values of untreated cells. Viabilities are expressed as % values. Viability is compared of proliferating cells grown in the absence of the inducer Ponasterone A, versus viability of cells arrested by the expression of ectopic p27Kip1 induced by Ponasterone A. The data of this experimental setting are summarized in table A (2nd column).

Row | Structure (SMILES) | IC50 [1] | IC50 [2]
1 | COCCOCCOC(=O)N1CCc2c(sc(NC(=O)c3ccccc3)c2C#N)C1 [Compound 75, 3-Cyano-2-[(1-phenyl-methanoyl)amino]-4,7-dihydro-5H-thieno[2,3-c]pyridine-6-carboxylic acid 2-(2-methoxy-ethoxy)-ethyl ester] | ≤ 3 µM | > 60 µM
2 | N#Cc1c(NC(=O)c2ccccc2)sc2c1CCN(C(=O)NCCc1c[nH]c3ccccc13)C2 [Compound 81, 3-Cyano-2-[(1-phenyl-methanoyl)-amino]-4,7-dihydro-5H-thieno[2,3-c]pyridine-6-carboxylic acid [2-(1H-indol-3-yl)-ethyl]-amide] | ≤ 3 µM | > 60 µM
3 | N#Cc1c(NC(=O)c2ccccc2)sc2c1CCN(C(=O)CCc1nccs1)C2 [Compound 33, N-[3-Cyano-6-(3thiazol-2-yl-propanoyl)-4,5,6,7-tetrahydro-thieno[2,3-c]pyridin-2-yl]-benzamide] | ≤ 3 µM | > 60 µM
4 | CCOCCCNC(=O)N1CCc2c(sc(NC(=O)c3ccccc3)c2C#N)C1 [Compound 100, 3-Cyano-2-[(1-phenyl-methanoyl)-amino]-4,7-dihydro-5H-hieno[2,3-c]pyridine-6-carboxylic acid (3-ethoxy-propyl)-amide] | ≤ 3 µM | > 100 µM
5 | N#Cc1c(NC(=O)c2ccccc2)sc2c1CCN(S(=O)(=O)c1ccc(N3CCOCC3)nc1)C2 [Compound 77, N-[3-Cyano-6-(6-morpholin-4-yl-pyridine-3-sulfonyl)-4,5,6,7-tetrahydro-thieno[2,3-c]pyridin-2-yl]-benzamide] | ≤ 3 µM | > 60 µM
6 | N#Cc1c(NC(=O)c2ccccc2)sc2c1CCN(C(=O)OCc1ccncc1)C2 [Compound 66, 3-Cyano-2-[(1-phenyl-methanoyl)-amino]-4,7-dihydro-5H-thieno[2,3-c]pyridine-6-carboxylic acid pyridin-4-ylmethyl ester] | ≤ 3 µM | > 60 µM
7 | CC(=O)CCC(=O)N1CCc2c(sc(NC(=O)c3ccccc3)c2C#N)C1 [Compound 27, N-[3-Cyano-6-(4-oxo-pentanoyl)-4,5,6,7-tetrahydro-thieno[2,3-c]pyridin-2-yl]-benzamide] | ≤ 2 µM | > 100 µM
8 | N#Cc1c(NC(=O)c2ccccc2)sc2c1CCN(C(=O)NCCc1ccccn1)C2 [Compound 99, 3-Cyano-2-[(1-phenyl-methanoyl)-amino]-4,7-dihydro-5H-thieno[2,3-c]pyridine-6-carboxylic acid (2-pyridin-2-yl-ethyl)-amide] | ≤ 3 µM | > 100 µM
9 | N#Cc1c(NC(=O)c2ccccc2)sc2c1CCN(C(=O)OCC(O)CO)C2 (stereo not drawn) [Compound 76, 3-Cyano-2-[(1-phenyl-methanoyl)-amino]-4,7-dihydro-5H-thieno[2,3-c]pyridine-6-carboxylic acid 2,3-dihydroxy-propyl ester] | ≤ 3 µM | > 60 µM
10 | CCOC(=O)N1CCc2c(sc(NC(=O)c3cccc(O)c3)c2C#N)C1 [Compound 53, 3-Cyano-2-{[1-(3-hydroxy-phenyl)-methanoyl]-amino}-4,7-dihydro-5H-thieno[2,3-c]pyridine-6-carboxylic acid ethyl ester] | ≤ 3 µM | > 60 µM
11 | N#Cc1c(NC(=O)c2ccccc2)sc2c1CCN(C(=O)OCCc1ccccn1)C2 [Compound 68, 3-Cyano-2-[(1-phenyl-methanoyl)-amino]-4,7-dihydro-5H-thieno[2,3-c]pyridine-6-carboxylic acid 2-pyridin-2-yl-ethyl ester] | ≤ 3 µM | > 60 µM
12 | N#Cc1c(NC(=O)c2ccccc2)sc2c1CCN(C(=O)OCCO)C2 [Compound 97, 3-Cyano-2-[(1-phenyl-methanoyl)-amino]-4,7-dihydro-5H-thieno[2,3-c]pyridine-6-carboxylic acid 2-hydroxy-ethyl ester] | ≤ 3 µM | > 100 µM
13 | COC(=O)CCCC(=O)N1CCc2c(sc(NC(=O)c3ccccc3)c2C#N)C1 [Compound 38, 5-{3-Cyano-2-[(1-phenyl-methanoyl)-amino]-4,7-dihydro-5H-thieno[2,3-c]pyridin-6-yl}-5-oxo-pentanoic acid methyl ester] | ≤ 3 µM | > 60 µM
14 | N#Cc1c(NC(=O)c2ccccc2)sc2c1CCN(C(=O)OCc1ccccc1)C2 [Compound 61, 3-Cyano-2-[(1-phenyl-methanoyl)-amino]-4,7-dihydro-5H-thieno[2,3-c]pyridine-6-carboxylic acid benzyl ester] | ≤ 3 µM | > 60 µM
15 | COC(=O)N1CCc2c(sc(NC(=O)c3ccccc3)c2C#N)C1 [Compound 54, 3-Cyano-2-[(1-phenyl-methanoyl)-amino]-4,7-dihydro-5H-thieno[2,3-c]pyridine-6-carboxylic acid methyl ester] | ≤ 3 µM | > 60 µM
16 | N#Cc1c(NC(=O)c2ccccc2)sc2c1CCN(C(=O)OCc1cccnc1)C2 [Compound 63, 3-Cyano-2-[(1-phenyl-methanoyl)-amino]-4,7-dihydro-5H-thieno[2,3-c]pyridine-6carboxylic acid pyridin-3-ylmethyl ester] | ≤ 3 µM | > 60 µM
17 | CCOC(=O)N1CCc2c(sc(NC(=O)c3ccc([N+](=O)[O-])cc3)c2C#N)C1 [Compound 44, 3-Cyano-2-{[1-(4-nitro-phenyl)-methanoyl]-amino}-4,7-dihydro-5H-thieno[2,3-c]pyridine-6-carboxylic acid ethyl ester] | ≤ 3 µM | > 60 µM
18 | COc1ccc(S(=O)(=O)N2CCc3c(sc(NC(=O)c4ccccc4)c3C#N)C2)cc1 [Compound 79, N-[3-Cyano-6-(4-methoxy-benzenesulfonyl)-4,5,6,7-tetrahydro-thieno[2,3-c]pyridin-2-yl]-benzamide] | ≤ 3 µM | > 60 µM
19 | CCOC(=O)N1CCc2c(sc(NC(=O)c3cccc(Cl)c3)c2C#N)C1 [Compound 48, 2-{[1-(3-Chloro-phenyl)-methanoyl]-amino}-3-cyano-4,7-dihydro-5H-thieno[2,3-c]pyridine-6-carboxylic acid ethyl ester] | ≤ 3 µM | > 60 µM
20 | CCOC(=O)N1CCc2c(sc(NC(=O)c3cccc(C)c3)c2C#N)C1 [Compound 51, 3-Cyano-2-[(1-m-tolyl-methanoyl)-amino]-4,7-dihydro-5H-thieno[2,3-c]pyridine-6-carboxylic acid ethyl ester] | ≤ 3 µM | > 60 µM
21 | CCOC(=O)N1CCc2c(sc(NC(=O)c3cccc(OC)c3)c2C#N)C1 [Compound 12, N-(6-Ethoxycarbonyl-3-cyano-4,5,6,7-tetrahydro-thieno[2,3-c]pyridin-2-yl)-3-methoxybenzamide] | ≤ 2 µM | > 100 µM
22 | N#Cc1c(NC(=O)c2ccccc2)sc2c1CCN(C(=O)CO)C2 [Compound 87, N-[3-Cyano-6-(2-hydroxy-ethanoyl)-4,5,6,7-tetrahydro-thieno[2,3-c]pyridin-2-yl]-benzamide] | ≤ 3 µM | > 100 µM
23 | COc1ccc(OC(=O)N2CCc3c(sc(NC(=O)c4ccccc4)c3C#N)C2)cc1 [Compound 60, 3-Cyano-2-[(1-phenyl-methanoyl)-amino]-4,7-dihydro-5H-thieno[2,3-c]pyridine-6-carboxylic acid 4-methoxy-phenyl ester] | ≤ 3 µM | > 60 µM
24 | CCOC(=O)N1CCc2c(sc(NC(=O)c3ccc(OC)cc3)c2C#N)C1 [Compound 49, 3-Cyano-2-{[1-(4-methoxy-phenyl)-methanoyl]-amino}-4,7-dihydro-5H-thieno[2,3-c]pyridine-6-carboxylic acid ethyl ester] | ≤ 3 µM | > 60 µM

From US7714134B2, “Compounds and use of tetrahydropyridothiophenes” (4SC AG, priority 2004, dated 2010)
